Experimental data: patent US8952035B2, “Combination of anti-angiogenic substance and anti-tumor platinum complex” (Eisai R&D Management Co., Ltd., priority 2008, dated 2015)

What was measured:
[1] = system: Human non-small-cell lung cancer cell line A549; test: Combination use of E7080 and carboplatin in subcutaneous transplanted models (in vivo) of A549; design: species or system nude mouse; details: alone
Experimental: Human non-small-cell lung cancer cell line A549 (purchased from Dainippon Sumitomo Pharma Co., Ltd) was cultured in RPMI1640 (containing 10% FBS) in a 5% carbon dioxide gas incubator at 37° C. to about 80% confluence, and then the cells were collected with trypsin-EDTA. A 1×10^8 cells/mL suspension was prepared with a phosphate buffer, which was further added with matrigel matrix (purchased from Becton, Dickinson and Co.) to give a 5×10^7 cells/mL suspension, and each 0.2 mL of the resulting cell suspension was subcutaneously transplanted to a nude mouse at the side of its body. Eleven days after the transplantation, 4-(3-chloro-4-(cyclopropylaminocarbonyl)aminophenoxy)-7-methoxy-6-quinolinecarboxamide (E7080) was orally administered for 3 or 10 mg/kg, once a day for four weeks, while 100 mg/kg of carboplatin was administered into the tail vein on the first day. The major and minor axes of tumors were measured with Digimatic caliper (Mitsutoyo Corporation), and tumor volumes and relative tumor volumes were calculated according to the following formulae: Tumor Volume (TV)=Major axis of tumor(mm)×(Minor axis of tumor)^2(mm^2)/2 Relative Tumor Volume (RTV)=Tumor volume on measurement day/Tumor volume on the first administration day.
Tables 4 and 5 show anti-tumor effects obtained by the use of E7080 alone, the use of carboplatin alone and the combination use of E7080 and carboplatin in subcutaneous transplanted A549 models. The first day of administration was considered Day 1.

[2] = system: Human non-small-cell lung cancer cell line A549; test: Combination use of E7080 and cisplatin in subcutaneous transplanted models (in vivo) of A549; design: species or system nude mouse; details: alone
Experimental: Human non-small-cell lung cancer cell line A549 (purchased from Dainippon Sumitomo Pharma Co., Ltd) was cultured in RPMI1640 (containing 10% FBS) in a 5% carbon dioxide gas incubator at 37° C. to about 80% confluence, and then the cells were collected with trypsin-EDTA. A 1×10^8 cells/mL suspension was prepared with a phosphate buffer, which was further added with matrigel matrix (purchased from Becton, Dickinson and Co.) to give a 5×10^7 cells/mL suspension, and each 0.2 mL of the resulting cell suspension was subcutaneously transplanted to a nude mouse at the side of its body. Eleven days after the transplantation, 4-(3-chloro-4-(cyclopropylaminocarbonyl)aminophenoxy)-7-methoxy-6-quinolinecarboxamide (hereinafter, also referred to as “[…]”) was orally administered for 3, 10 or 30 mg/kg, once a day for four weeks, while 10 mg/kg of cisplatin was administered into the tail vein once a day. The major and minor axes of tumors were measured with Digimatic caliper (Mitsutoyo Corporation), and tumor volumes and relative tumor volumes were calculated according to the following formulae: Tumor Volume (TV)=Major axis of tumor(mm)×(Minor axis of tumor)^2(mm^2)/2 Relative Tumor Volume (RTV)=Tumor volume on measurement day/Tumor volume on the first administration day. […] Tables 1, 2 and 3 show anti-tumor effects obtained by the use of […] alone, the use of cisplatin alone and the combination use of […] and cisplatin in subcutaneous transplanted A549 models. The first day of administration was considered Day 1.

[3] = E7080 3 mg/kg orally once a day for four weeks
[4] = E7080 10 mg/kg orally once a day for four weeks

N.N.O=C([O-])C1(C(=O)[O-])CCC1.[Pt+2] [Carboplatin, carboplatin, reference compound]
Relative tumor volume on Day 29 Average ± standard deviation ([1]; Carboplatin 100 mg/kg into the tail vein on the first day): 7.87 ± 1.05

COc1cc2nccc(Oc3ccc(NC(=O)NC4CC4)c(Cl)c3)c2cc1C(N)=O [E7080, 4-(3-chloro-4-(cyclopropylaminocarbonyl)aminophenoxy)-7-methoxy-6-quinolinecarboxamide]
Relative tumor volume on Day 29 Average ± standard deviation [2, 3]: 2.24 ± 0.34
Relative tumor volume on Day 29 Average ± standard deviation [2, 4]: 1.81 ± 0.29
Relative tumor volume on Day 29 Average ± standard deviation ([2]; E7080 30 mg/kg orally once a day for four weeks): 1.20 ± 0.21
Relative tumor volume on Day 29 Average ± standard deviation [1, 3]: 2.24 ± 0.34
Relative tumor volume on Day 29 Average ± standard deviation [1, 4]: 1.81 ± 0.29

N.N.[Cl][Pt][Cl] [Cisplatin, cisplatin, reference compound]
Relative tumor volume on Day 29 Average ± standard deviation ([2]; Cisplatin 10 mg/kg into the tail vein): 7.99 ± 0.88
